The values below come from US8501732B2, “Aminomethyl quinolone compounds” (Hoffmann-La Roche Inc., priority 2011, dated 2013).

The pIC50 is −log10 of the IC50, conventionally taken in molar units. As a reminder, the pEC50 is −log10 of the EC50, conventionally taken in molar units.

For one test, the target named is JNK1 (Homo sapiens (Human), UniProt P45983). The experiment in a line: In Vitro JNK1 Assay (TR-FRET, phosphorylation of GST-c-Jun). Format: biochemical. The settings on record: 0.2 nM active JNK1 kinase, 26.7 nM GST-c-Jun, 2 μM ATP, 30 min at room temperature. A digest of the protocol:
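IC50 derived from percent inhibition across 10 serially diluted concentrations, with TR-FRET detection of phospho-c-Jun via an anti-phospho-c-Jun antibody after EDTA stop. Substrate was GST-c-Jun 1-79, reacted 30 min at room temperature in pH 7.0 HEPES buffer with MgCl2, DTT, vanadate and BSA.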

For test [1], the system named is phospho(Ser63)-c-jun in HK-2 cells. Kind of test: Cell-Based Assay for JNK Inhibitors (in-cell ELISA, phospho(Ser63)-c-jun after TNFα). The settings on record: HK-2 cells (human proximal tubule cells), 60 minutes compound, then 10 ng/mL TNFα for 30 minutes. The method in brief: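 HK-2 human proximal tubule cells were seeded at 40,000 cells/well, cultured 24 h, then serum-starved 16–24 h before TNFα stimulation with compound. Phospho(Ser63)-c-jun was quantified by in-cell ELISA on fixed, permeabilised cells, using a rabbit phospho-specific primary (overnight, 4 °C) and an HRP-linked anti-rabbit secondary. Absorbance was read at 450 nm.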

Molecules are shown by their SMILES. pEC50, pIC50: −log10 of the molar value.

Sequence of JNK1 (P45983 whole entry): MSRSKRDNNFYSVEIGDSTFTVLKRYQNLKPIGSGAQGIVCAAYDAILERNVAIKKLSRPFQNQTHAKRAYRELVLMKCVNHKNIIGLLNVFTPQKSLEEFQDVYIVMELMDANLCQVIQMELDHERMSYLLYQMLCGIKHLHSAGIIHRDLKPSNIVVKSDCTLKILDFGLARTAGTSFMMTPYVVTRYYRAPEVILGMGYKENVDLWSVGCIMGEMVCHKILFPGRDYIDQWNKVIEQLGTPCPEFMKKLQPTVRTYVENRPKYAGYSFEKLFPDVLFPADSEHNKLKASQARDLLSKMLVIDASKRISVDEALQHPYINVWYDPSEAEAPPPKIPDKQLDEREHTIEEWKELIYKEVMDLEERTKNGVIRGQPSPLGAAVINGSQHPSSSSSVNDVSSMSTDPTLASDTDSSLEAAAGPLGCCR

`O=c1c(CNc2ncnc3cc(F)ccc23)cn(-c2ccccc2)c2cc(Cl)ccc12` [Example I-172, 7-Chloro-3-[(7-fluoro-quinazolin-4-ylamino)-methyl]-1-phenyl-1H-quinolin-4-one] gave a pIC50 against JNK1 of 7.10. For the same compound, the pEC50 in test [1] was 4.00.
Consider `COC(=O)c1c(CNc2ncnc3ccccc23)c(=O)c2ccc(Cl)cc2n1-c1ccccc1` [Example I-208, 7-Chloro-4-oxo-1-phenyl-3-(quinazolin-4-ylaminomethyl)-1,4-dihydro-quinoline-2-carboxylic acid methyl ester], for which the pIC50 against JNK1 was 7.22. The same compound had a pEC50 in test [1] of 5.08.
